According to patent US20160175324A1, “ANTI-ACNE COMPOSITIONS COMPRISING BILE ACID-FATTY ACID CONJUGATES” (GALDERM THERAPEUTICS LTD., priority 2013, published 2016):

Assays:
[1] = test system: human skin fibroblasts; test: Cholesterol efflux with [3H] cholesterol in fibroblasts; assay type: cell-based; settings: 20 hours incubation, compared to untreated cells
Description: (§1) Steamchol was incubated with human skin fibroblasts for 20 hours to measure cholesterol loading in the presence of [^3H] cholesterol. After series of washing and adding efflux containing cholesterol acceptors, medium was collected and centrifuged and cell associated cholesterol was compared to effluxed cholesterol in the presence and absence of the similar FABAC. This research project also included quantification of mRNA of ABCA1 and direct measurement of ABCA1.
(§2) Similarly, cells were pre-incubated with […] cholesterol, washed four times and then placed in an incubation medium with or without Aramchol for 20 hours. Following the incubation, radioactivity was measured separately in the medium and in the cells. Cholesterol efflux percentage was calculated as radioactivity in medium divided by the total radioactivity (cells+medium).

[2] = test system: ABCA1; test: ABCA1 protein concentration in fibroblasts during cholesterol efflux; assay type: cell-based, human; settings: efflux in the presence of FABAC, compared to untreated cells
Description: as §1, §2

[3] = test system: sebum production; settings: background statement; cited from earlier work
[4] = test system: Full-thickness Epiderm cultures (EFT-400, MatTek); test: Cytotoxicity assay (MTT) after topical application to full-thickness skin cultures; assay type: cell-based; settings: for Cell Viability: 24-hour exposure, MTT, vs untreated control
Description: Full-thickness Epiderm cultures (EFT-400, MatTek) were used to determine toxicity in response to topical application of a test material (Steamchol).
The test material was provided as a powder. Test solutions were prepared by adding the appropriate amount of powdered material to 1 mL DMSO. Lower concentrations were made by serial dilution with 100% DMSO. The final test material concentrations and treatments were: 2% Steamchol (20,000 ug/mL); 1% Steamchol (10,000 ug/mL); 0.1% Steamchol (1000 ug/mL); 0.01% Steamchol (100 ug/mL); vehicle control (100% DMSO); and untreated control.
Full-thickness skin cultures (EFT-400) were maintained according to MatTek protocol; the cultures were equilibrated at 37° C. and 5% CO2 for 24 hours prior to application of test materials. Test material was applied to the surface of each culture using sterile techniques (10 μL applied to each culture). Two cultures were assigned to each treatment group and the viability percentages presented below are averages of viability of each two cultures. Two EFT cultures served as an untreated control (also referred to as negative control in FIG. 2), and two other EFT cultures served as a positive control (100 μL 1% Triton X-100).
Following a 24-hour incubation period with the test material, cultures were processed for cell toxicity analysis using an MTT [(3-4,5-dimethylthiazole-2-yl) 2,5-diphenyltetrazoliumbromide] assay (reagents purchased from MatTek). Viable tissues converted MTT into a blue formazan salt that was detected by measuring absorbance at a specific wavelength of light (A570). Percent viability was calculated by comparing the A570 reading of the test cultures to the A570 of the untreated control culture, using the following formula: [Treated A570/Untreated A570]*100

[5] = test system: KRT10 (keratin 10); test: Taqman gene expression in Epiderm FT skin culture, KRT10; assay type: cell-based; settings: 0.5% (5000 μg/mL) in DMSO, 24 hours post-application, vs DMSO control
Description: (§3) A full-thickness in vitro skin culture model, Epiderm FT (MatTek, MA), was treated with Steamchol. A non-cytotoxic concentration of Steamchol in DMSO (0.5%, 5000 μg/mL) was applied to the surface of each test culture and cells were collected 24 hours post-application. Control cells were similarly treated with DMSO without Steamchol. Tissues were collected in RNAlater for gene expression analysis. Gene expression was analyzed using validated Taqman gene expression assays in a Taqman Low Density Array (TLDA) format. 94 genes that regulate a variety of known functions in skin were analyzed, including the ABCA1 and SCD1 genes. The experimental set up was conducted in a 96-well format using validated Taqman gene expression assays. Each gene was assayed in duplicates. Statistics were carried out using the StatMiner software v4.2 (unpaired t-tests, p<0.05, N=4) to compare the 0.5% Steamchol group to the DMSO control group.

[6] = test system: KRT1 (keratin 1); test: Taqman gene expression in Epiderm FT skin culture, KRT1; assay type: cell-based; settings: 0.5% (5000 μg/mL) in DMSO, 24 hours post-application, vs DMSO control
Description: as §3

[7] = test system: ABCA1; test: Taqman gene expression in Epiderm FT skin culture, ABCA1 mRNA; assay type: cell-based; settings: 0.5% (5000 μg/mL) in DMSO, 24 hours post-application, vs DMSO control
Description: as §3

Which “Cholesterol efflux in fibroblasts” value [1] does the source give for `CCCCCCCCCCCCCCCCCCCC(=O)N[C@H]1CC[C@@]2(C)[C@@H](C1)C[C@@H](O)[C@@H]1[C@@H]2C[C@H](O)[C@]2(C)[C@@H]([C@H](C)CCC(=O)O)CC[C@@H]12` [Aramchol, 3β-arachidylamido-7α,12α, dihidroxy-5β-cholan-24-oic acid] here?
Its value is “significantly enhanced”.

And the “ABCA1 protein concentration increase” value [2]?
Its value is “approximately 2 fold”.

For `CC1=C(/C=C/C(C)=C/C=C/C(C)=C\C(=O)O)C(C)(C)CCC1` [Isotretinoin], which “Decrease of sebum production” value [3] is on record?
Its value is “up to 90%”.

For `CCCCCCCCCCCCCCCCCC(=O)N[C@H]1CC[C@@]2(C)[C@@H](C1)C[C@@H](O)[C@@H]1[C@@H]2C[C@H](O)[C@]2(C)[C@@H]([C@H](C)CCC(=O)O)CC[C@@H]12` [Steamchol, 3β-stearylamido-7α,12α, dihidroxy-5β-cholan-24-oic acid], which “Cell Viability” value ([4]; 0.01% Steamchol (100 ug/mL) in DMSO) is on record?
The value was 100.41%.

And the “Cell Viability” value ([4]; 0.1% Steamchol (1000 ug/mL) in DMSO)?
Its value is 99.98%.

What about the “Cell Viability” value ([4]; 1% Steamchol (10,000 ug/mL) in DMSO) of the same molecule?
Its value is 96.88%.

What about the “Cell Viability” value ([4]; 2% Steamchol (20,000 ug/mL) in DMSO) of the same molecule?
Its value is 93.89%.

What about the “Toxicity in previous viability assay” value ([4]; 40.0, 13.3, 4.4, 1.5 ug/mL, data not shown) of the same molecule?
The value was “no toxicity was observed”.

And the “Cell viability compared to the untreated control” value ([4]; all dilutions tested (0.01%-2%), 24 hours)?
The value was roughly 100%.

And the “Cholesterol efflux in fibroblasts” value [1]?
Its value is “significantly enhanced”.

What about the “ABCA1 protein concentration increase” value [2] of the same molecule?
The value was “approximately 2 fold”.

What about the “Fold Change of keratin 10 gene expression” value [5] of the same molecule?
Its value is −2.60.

What about the “Fold Change of keratin 1 gene expression” value [6] of the same molecule?
The value was −2.49.

And the “Change in mRNA levels of ABCA1” value [7]?
Its value is “No significant change”.
